In patent US10336762B2 (priority 2017, dated 2019):
Like-named read-outs stand apart in the source and are kept apart here.

Experiments:
TNFα = assay: cells; format: cell-based, human; details: LPS-stimulated human monocytes, read-out: EC50 TNF
Method: IRAK4 Monocyte TNFα Cell Based Assay Procedure:
The cell suspension was then plated at a density of 5,000 cells/well onto black 384 well Greiner clear bottom plates. Plates were pre-spotted with test compounds and serially diluted in DMSO where 200 nL/well were delivered using the Echo 550 acoustic liquid dispenser (Labcyte®) for a final DMSO concentration of 0.5%. Plated cells were treated with compound for 1 hour at 37° C. Cells were then stimulated with 50 pg/ml of LPS (Sigma) excluding outside columns of plate used for unstimulated cell control wells. Cells were incubated for an additional 4 hours at 37° C. Cells were then spun out of the media and 5 μl of sample were taken and analyzed for total TNFα content using the TR-FRET Human TNFα detection system (CisBio). This system utilizes two labeled antibodies (cryptate and XL665) that bind to two different epitopes of the TNFα molecule and produce FRET signal proportional to the concentration of TNFα in the sample. Detection antibodies are mixed 50:50 and 5 μL were dispensed into each well. Plates were covered with clear seals and incubated at room temp overnight. […] Percent of control was calculated as follows: % Control=100×(RatioSample−Ratio0% stimulation)/(Ratio100% Stimulation−Ratio0% Stimulation) where unstimulated cells (0% stimulation) were the negative control and stimulated cells (100% stimulation) were used as the positive control.

IRAK4 enzyme = IRAK4 enzyme (Homo sapiens (Human), UniProt Q9NWZ3); assay: biochemical; format: biochemical; details: IRAK4 enzyme, 500 μM ATP
[1] = Homo sapiens, Monocyte, TNFα content
[2] = Homo sapiens, Monocyte, TNFα by TR-FRET

Sequence of IRAK4 enzyme (Q9NWZ3 whole entry): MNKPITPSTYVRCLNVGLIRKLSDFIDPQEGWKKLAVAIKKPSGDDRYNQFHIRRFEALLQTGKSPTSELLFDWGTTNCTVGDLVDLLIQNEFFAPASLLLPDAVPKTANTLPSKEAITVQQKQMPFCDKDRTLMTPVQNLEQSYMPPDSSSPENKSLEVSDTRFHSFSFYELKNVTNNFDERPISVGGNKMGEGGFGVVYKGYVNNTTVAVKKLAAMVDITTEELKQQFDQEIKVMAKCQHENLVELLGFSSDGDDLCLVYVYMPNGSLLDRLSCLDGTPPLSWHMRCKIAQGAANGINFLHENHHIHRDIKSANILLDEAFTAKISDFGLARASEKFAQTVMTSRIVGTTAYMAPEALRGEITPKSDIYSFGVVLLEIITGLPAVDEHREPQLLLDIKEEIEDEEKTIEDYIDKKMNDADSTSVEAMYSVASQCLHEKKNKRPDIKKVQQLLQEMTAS

SMILES | EC50 (TNFα; [1]) | IC50 (IRAK4 enzyme; TR-FRET (HTRF)) | EC50 (TNFα; [2]) | IC50 (IRAK4 enzyme; TR-FRET) | EC50 (TNFα; TNFα content)
N#Cc1cnn2c(-c3cc(Nc4cnn(CC(F)F)c4)c(C(=O)N[C@H]4CC[C@H](NC(=O)C5CC5)CC4)cn3)ccc2c1 [Example 519, 6-(3-cyanopyrrolo[1,2-b]pyridazin-7-yl)-N-((1r,4r)-4-(cyclopropane-carboxamido)cyclohexyl)-4-((1-(2,2-difluoroethyl)-1H-pyrazol-4-yl)amino) nicotinamide] | 34 nM | < 1 nM |  |  | 
CC(C)(O)[C@H](F)CNC(=O)c1cnc(-c2ccc3cc(C#N)cnn23)cc1NC1C2CC3CC1CC(O)(C3)C2 (stereo partly drawn) [Example 419, 6-(3-cyanopyrrolo[1,2-b]pyridazin-7-yl)-N-((R)-2-fluoro-3-hydroxy-3-methylbutyl)-4-((5-hydroxyadamantan-2-yl)amino)nicotinamide] | 127 nM | 3 nM |  |  | 
CCC(=O)c1cccc(Nc2cc(-c3ccc4cc(C#N)cnn34)ncc2C(=O)NC[C@@H](F)C(C)(C)O)c1 [Example 839, (R)-6-(3-cyanopyrrolo[1,2-b]pyridazin-7-yl)-N-(2-fluoro-3-hydroxy-3-methylbutyl)-4-((3-propionylphenyl)amino) nicotinamide] |  |  | 307 nM | 1 nM | 
CC(C)(O)[C@H](F)CNC(=O)c1cnc(-c2ccc3cc(C#N)cnn23)cc1Nc1ccc(C#N)cc1 [Example 140, (R)-4-((4-cyanophenyl)amino)-6-(3-cyanopyrrolo[1,2-b]pyridazin-7-yl)-N-(2-fluoro-3-hydroxy-3-methylbutyl)nicotinamide] | 58 nM |  |  | < 1 nM | 
Cc1ncc(C2CCC(Nc3cc(-c4ccc5cc(C#N)cnn45)ncc3C(=O)NC[C@@H](F)C(C)(C)O)CC2)o1 (single isomer, unassigned) [Example 645] |  | 10 nM |  |  | 301 nM
CC(C)(O)[C@H](F)CNC(=O)c1cnc(-c2ccc3cc(C#N)cnn23)cc1NC12CCC(N3CCOCC3)(CC1)CC2 [Example 780, (R)-6-(3-cyanopyrrolo[1,2-b]pyridazin-7-yl)-N-(2-fluoro-3-hydroxy-3-methylbutyl)-4-((4-morpholinobicyclo[2.2.2]octan-1-yl)amino)nicotinamide] | 38 nM | 1 nM |  |  | 
CC(C)(O)[C@H](F)CNC(=O)c1cnc(-c2ccc3cc(C#N)cnn23)cc1NCC1CCC1 [Example 703, (R)-6-(3-cyano-pyrrolo[1,2-b]pyridazin-7-yl)-4-((cyclobutyl-methyl)amino)-N-(2-fluoro-3-hydroxy-3-methylbutyl)nicotinamide] | 45 nM | < 1 nM |  |  | 
CC(C)(O)[C@H](F)CNC(=O)c1cnc(-c2ccc3cc(C#N)cnn23)cc1NC12CCC(C(=O)N3CC(F)(F)C3)(CC1)CC2 [Example 409, (R)-6-(3-cyanopyrrolo[1,2-b]pyridazin-7-yl)-4-((4-(3,3-difluoroazetidine-1-carbonyl)bicyclo[2.2.2]octan-1-yl)amino)-N-(2-fluoro-3-hydroxy-3-methylbutyl)nicotinamide] | 17 nM | 1 nM |  |  | 
CC(C)(O)[C@H](F)CNC(=O)c1cnc(-c2ccc3cc(C#N)cnn23)cc1NC1CC(Cc2cnco2)C1 (single isomer, unassigned) [Example 638] |  | < 1 nM |  |  | 26 nM
COC(=O)N[C@H]1C[C@H](Nc2cc(-c3ccc4cc(C#N)cnn34)ncc2C(=O)NC[C@@H](F)C(C)(C)O)C1 [Example 455, methyl ((1R,3r)-3-((2-(3-cyanopyrrolo[1,2-b]pyridazin-7-yl)-5-(((R)-2-fluoro-3-hydroxy-3-methylbutyl)carbamoyl)pyridin-4-yl)amino)cyclobutyl)carbamate] | 118 nM | 1 nM |  |  | 
Cn1cc(Nc2cc(-c3ccc4cc(C#N)cnn34)ncc2C(=O)NC[C@@H](F)C(C)(C)O)cn1 [Example 47, (R)-6-(3-cyanopyrrolo[1,2-b]pyridazin-7-yl)-N-(2-fluoro-3-hydroxy-3-methylbutyl)-4-((1-methyl-1H-pyrazol-4-yl)amino)nicotinamide] | 37 nM |  |  | < 1 nM | 
CC(C)(O)[C@H](F)CNC(=O)c1cnc(-c2ccc3cc(C#N)cnn23)cc1N[C@H]1CC[C@H](c2cnco2)CC1 [Example 630, 6-(3-cyanopyrrolo[1,2-b]pyridazin-7-yl)-N-((R)-2-fluoro-3-hydroxy-3-methylbutyl)-4-(((1r,4R)-4-(oxazol-5-yl)cyclohexyl)amino)nicotinamide] | 9 nM | < 1 nM |  |  | 
Cc1nnc(Nc2cc(-c3ccc4cc(C#N)cnn34)ncc2C(=O)NC[C@@H](F)C(C)(C)O)s1 [Example 146, (R)-6-(3-cyanopyrrolo[1,2-b]pyridazin-7-yl)-N-(2-fluoro-3-hydroxy-3-methylbutyl)-4-((5-methyl-1,3,4-thiadiazol-2-yl)amino)nicotinamide] | 117 nM |  |  | 1 nM | 
COC(=O)NC12CCC(Nc3cc(-c4ccc5cc(C#N)cnn45)ncc3C(=O)NC3CCC(NC(=O)C4CC4)CC3)(CC1)CC2 (stereo not drawn) [Example 271, methyl (4-((2-(3-cyano-pyrrolo[1,2-b]pyridazin-7-yl)-5-((4-(cyclopropane-carboxamido)cyclohexyl)carbamoyl)pyridin-4-yl)amino)bicyclo[2.2.2]octan-1-yl)carbamate] | 38 nM |  |  | 1 nM | 
CC(C)Nc1cc(-c2ccc3cc(C#N)cnn23)ncc1C(=O)NCC1CCS(=O)(=O)C1 (stereo not drawn) [Example 73, 6-(3-cyanopyrrolo[1,2-b]pyridazin-7-yl)-N-((1,1-dioxidotetrahydrothiophen-3-yl)methyl)-4-(isopropylamino) nicotinamide] | 119 nM |  |  | 3 nM | 
CC(C)Nc1cc(-c2ccc3cc(C#N)cnn23)ncc1C(N)=O [Example 39, 6-(3-cyanopyrrolo[1,2-b]pyridazin-7-yl)-4-(isopropylamino) nicotinamide] | 507 nM |  |  | 4 nM | 
CC(C)(O)[C@H](F)CNC(=O)c1cnc(-c2ccc3cc(C#N)cnn23)cc1NC1CCN(S(C)(=O)=O)CC1 [Example 46, (R)-6-(3-cyanopyrrolo[1,2-b]pyridazin-7-yl)-N-(2-fluoro-3-hydroxy-3-methylbutyl)-4-((1-(methylsulfonyl)piperidin-4-yl)amino)nicotinamide] | 37 nM |  |  | < 1 nM | 
CC(C)(O)[C@H](F)CNC(=O)c1cnc(-c2ccc3cc(C#N)cnn23)cc1N[C@H]1CC[C@H](CN)CC1 [Example 558, 4-(((1r,4R)-4-(amino-methyl)cyclohexyl)amino)-6-(3-cyano-pyrrolo[1,2-b]pyridazin-7-yl)-N-((R)-2-fluoro-3-hydroxy-3-methylbutyl) nicotinamide] | 190 nM | < 1 nM |  |  | 
CC(C)(O)[C@H](F)CNC(=O)c1cnc(-c2ccc3cc(C#N)cnn23)cc1Nc1ccc(CNC(=O)C2CC2)cc1 [Example 202, (R)-6-(3-cyanopyrrolo[1,2-b]pyridazin-7-yl)-4-((4-(cyclopropane-carboxamidomethyl)phenyl)amino)-N-(2-fluoro-3-hydroxy-3-methylbutyl)nicotinamide] | 22 nM |  |  | < 1 nM | 
COC(=O)N1CC[C@H](CNc2cc(-c3ccc4cc(C#N)cnn34)ncc2C(=O)NC[C@@H](F)C(C)(C)O)C1 [Example 900, (R)-methyl 3-(((2-(3-cyanopyrrolo[1,2-b]pyridazin-7-yl)-5-(((R)-2-fluoro-3-hydroxy-3-methylbutyl)carbamoyl)pyridin-4-yl)amino)methyl) pyrrolidine-1-carboxylate] |  |  | 134 nM | 2 nM | 
CNC(=O)NC[C@H]1C[C@H](Nc2cc(-c3ccc4cc(C#N)cnn34)ncc2C(=O)NC[C@@H](F)C(C)(C)O)C1 [Example 788, 6-(3-cyanopyrrolo[1,2-b]pyridazin-7-yl)-N-((R)-2-fluoro-3-hydroxy-3-methylbutyl)-4-(((1r,3R)-3-((3-methylureido)methyl)cyclobutyl)amino) nicotinamide] | 90 nM | < 1 nM |  |  | 
Cn1ccc(Nc2cc(-c3ccc4cc(C#N)cnn34)ncc2C(=O)NC[C@@H](F)C(C)(C)O)n1 [Example 371, (R)-6-(3-cyanopyrrolo[1,2-b]pyridazin-7-yl)-N-(2-fluoro-3-hydroxy-3-methylbutyl)-4-((1-methyl-1H-pyrazol-3-yl)amino)nicotinamide] | 61 nM |  |  | < 1 nM | 
CN1CCC(C(=O)NC[C@H]2C[C@H](Nc3cc(-c4ccc5cc(C#N)cnn45)ncc3C(=O)NC[C@@H](F)C(C)(C)O)C2)CC1 [Example 794, 6-(3-cyanopyrrolo[1,2-b]pyridazin-7-yl)-N-((R)-2-fluoro-3-hydroxy-3-methylbutyl)-4-(((1r,3R)-3-((1-methylpiperidine-4-carboxamido)methyl)cyclo-butyl)amino)nicotinamide] | 997 nM | 2 nM |  |  | 
N#Cc1cnn2c(-c3cc(NC45CCC(O)(CC4)CC5)c(C(=O)NCC(=O)N4CCOCC4)cn3)ccc2c1 [Example 785, 6-(3-cyanopyrrolo[1,2-b]pyridazin-7-yl)-4-((4-hydroxybicyclo[2.2.2]octan-1-yl)amino)-N-(2-morpholino-2-oxoethyl)nicotinamide] | 23 nM | < 1 nM |  |  | 
CC1(O)CCCC(Nc2cc(-c3ccc4cc(C#N)cnn34)ncc2C(=O)NC[C@@H](F)C(C)(C)O)C1 (single isomer, unassigned) [Example 528] | 65 nM | 1 nM |  |  | 
CC(=O)NC12CCC(Nc3cc(-c4ccc5cc(C#N)cnn45)ncc3C(=O)NC[C@@H](F)C(C)(C)O)(CC1)C2 [Example 499, (R)-4-((4-acetamidobicyclo[2.2.1]heptan-1-yl)amino)-6-(3-cyanopyrrolo[1,2-b]pyridazin-7-yl)-N-(2-fluoro-3-hydroxy-3-methylbutyl)nicotinamide] | 20 nM | 1 nM |  |  | 
CC(C)(O)[C@H](F)CNC(=O)c1cnc(-c2ccc3cc(C#N)cnn23)cc1Nc1cnc2c(c1)OCCN2 [Example 855, (R)-6-(3-cyanopyrrolo[1,2-b]pyridazin-7-yl)-4-((3,4-dihydro-2H-pyrido[3,2-b][1,4]oxazin-7-yl)amino)-N-(2-fluoro-3-hydroxy-3-methylbutyl)nicotinamide] |  |  | 9 nM | < 1 nM | 
